Assay results reported in patent US11098073B2, “Triphenylphosphonium-tethered tetracyclines for use in treating cancer” (Oxford University Innovation Limited, priority 2017, dated 2021).
Structures can show the parent of a compound that is named as a salt.

System: MDA-231 cancer cells
Assay: Inhibition of proliferation assay: cell confluence (IncuCyte live cell imaging)
Type: cell-based
Conditions: compound tested at 10 μM, images every 3 h over 4-5 d, relative confluence normalised to time zero
From the text: Inhibition of Proliferation Assay
The confluence value is a surrogate for cell proliferation and growth. The value is expressed as a percent confluence, which represents the fraction of culture dish-surface that is occupied by cells. As the number of cells in the dish increases over time due to proliferation, so will their coverage of that surface increase. Expansion of the cell population on the cell culture-dish surface and confluence have mostly a linear relationship until the cells on the plate surface begin to reach saturation or maximum density.
Confluence is determined based on image analysis. Image based software can identify objects in the image field base on changes to pixel density in a grey scale image. The software can then assign a mask to those pixels within the object. Objects can be ‘gated’ out based on size and shape. To determine cell confluence, images of cells are first masked as objects. The surface area of the image that is masked is measured and compared to the total surface area of the culture dish surface to obtain a percent confluence.
MDA-231 cancer cells were obtained from ATCC. Cells were cultured in Dulbecco's Modified Eagle Medium (DMEM) supplemented with 10% Fetal Bovine Serum (FBS), 2 mM Glutamax, 1 mM Non Essential Amino Acid (NEAA) solution and 1 mM sodium pyruvate. […] Final DMSO concentrations were […]. Images were acquired with an IncuCyte Live Cell Imaging microscopy (Essen Bioscience) at every 3 h under cell culture conditions with 10 OX objective over 4-5 d. Cell confluence was calculated from one field of view per well using the IncuCyte in-built algorithm. Relative confluence values were obtained by normalising each value to the time zero value in each sample.

| Structure (SMILES) | % Confluence [%] |
| --- | --- |
| C[C@H]1c2ccc(CNC(=O)CCCCC[P+](c3ccccc3)(c3ccccc3)c3ccccc3)c(O)c2C(=O)C2=C(O)[C@]3(O)C(=O)C(C(N)=O)=C(O)[C@@H](N(C)C)[C@@H]3[C@@H](O)[C@@H]21 [Example 16, trifluoroacetate] | 116.3 |
| C[C@H]1c2ccc(CNC(=O)CCCCCCC[P+](c3ccccc3)(c3ccccc3)c3ccccc3)c(O)c2C(=O)C2=C(O)[C@]3(O)C(=O)C(C(N)=O)=C(O)[C@@H](N(C)C)[C@@H]3[C@@H](O)[C@@H]21 [Example 17, trifluoroacetate] | 79.4 |
| C[C@H]1c2ccc(NC(=O)CCCCC[P+](c3ccccc3)(c3ccccc3)c3ccccc3)c(O)c2C(=O)C2=C(O)[C@]3(O)C(=O)C(C(N)=O)=C(O)[C@@H](N(C)C)[C@@H]3[C@@H](O)[C@@H]21.[Cl-] [Example 18] | 59.1 |
| C[C@H]1c2ccc(NC(=O)CCCCCC[P+](c3ccccc3)(c3ccccc3)c3ccccc3)c(O)c2C(=O)C2=C(O)[C@]3(O)C(=O)C(C(N)=O)=C(O)[C@@H](N(C)C)[C@@H]3[C@@H](O)[C@@H]21.[Cl-] [Example 19] | 22.4 |
| C[C@H]1c2ccc(NC(=O)CCCCCCCC[P+](c3ccccc3)(c3ccccc3)c3ccccc3)c(O)c2C(=O)C2=C(O)[C@]3(O)C(=O)C(C(N)=O)=C(O)[C@@H](N(C)C)[C@@H]3[C@@H](O)[C@@H]21.[Cl-] [Example 20] | 25.2 |
